9 molecules from ChEMBL document CHEMBL4219131, “Design and synthesis of estrogen receptor ligands with a 4-heterocycle-4-phenylheptane skeleton” (Bioorg Med Chem, 2018) can be followed below.

Test [1] deals with T1, Estrogen receptor (Homo sapiens, UniProt P03372).
T1 sequence (P03372 whole entry): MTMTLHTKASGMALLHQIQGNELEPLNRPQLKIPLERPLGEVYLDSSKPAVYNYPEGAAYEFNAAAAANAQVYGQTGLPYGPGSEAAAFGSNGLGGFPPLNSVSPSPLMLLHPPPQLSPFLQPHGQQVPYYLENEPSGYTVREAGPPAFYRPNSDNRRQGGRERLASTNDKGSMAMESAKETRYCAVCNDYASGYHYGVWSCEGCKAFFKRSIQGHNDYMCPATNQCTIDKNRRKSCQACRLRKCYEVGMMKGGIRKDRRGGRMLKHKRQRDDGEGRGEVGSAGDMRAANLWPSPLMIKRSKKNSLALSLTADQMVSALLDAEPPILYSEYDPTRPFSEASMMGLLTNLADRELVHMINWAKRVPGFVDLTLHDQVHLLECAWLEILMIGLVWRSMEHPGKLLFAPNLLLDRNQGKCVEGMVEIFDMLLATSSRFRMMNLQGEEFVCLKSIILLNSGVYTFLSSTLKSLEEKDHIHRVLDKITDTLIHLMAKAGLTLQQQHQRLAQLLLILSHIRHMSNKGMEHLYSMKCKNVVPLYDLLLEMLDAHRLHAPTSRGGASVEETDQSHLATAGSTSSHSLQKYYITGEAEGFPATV
The experiment in a line: biochemical.
Description: Displacement of Fluormone ES2 from full length recombinant human untagged ERalpha expressed in Sf insect cells by fluorescence polarization assay

The target in test [2] is T1, Estrogen receptor. The experiment in a line: Agonist activity at recombinant human GAL4-fused ERalpha expressed in HEk293 cells by luciferase reporter gene assay. Format: cell-based. (Reporter assays use an easily measured gene product as a stand-in for the process of interest.)
In test [3] the target is T2, Estrogen receptor (Homo sapiens) (UniProt P03372).
T2 sequence (whole entry): T1 sequence (P03372 whole entry)
The experiment in a line: Antagonist activity at ERalpha (unknown origin) expressed in human MCF7 cells assessed as inhibition of E2-induced response at 10 uM by dual luciferase reporter gene assay. Format: cell-based.

The target in test [4] is T2, Estrogen receptor (Homo sapiens). Nature of the test: Agonist activity at recombinant human GAL4-fused ERalpha expressed in HEk293 cells at 30 uM by luciferase reporter gene assay. Format: cell-based.
The target of test [5] is T1, Estrogen receptor.
Description: Antagonist activity at ERalpha (unknown origin) expressed in human MCF7 cells assessed as inhibition of E2-induced response by dual luciferase reporter gene assay

SMILES strings stand for the structures. The source made the active and inactive calls. The rule behind the calls is not given here.

For the molecule `CCCC(CCC)(c1ccc(O)c(C)c1)c1cccs1`, 4680 nM corresponded to half-maximal inhibition against Estrogen receptor [1] (IC50). Further, the EC50 – broadly, the concentration at which the effect is half-maximal – at Estrogen receptor [2] was over 30 µM. Besides, the inhibition – broadly, the percentage by which the read-out fell short of the control – in test [3] was “inactive”.

With `CCCC(CCC)(c1ccc(O)c(C)c1)c1ccc(C(=O)O)n1C`, the 50% inhibitory concentration (IC50) (usually the concentration needed to halve the response being measured) against Estrogen receptor [1] is over 10000 nM. In addition, in test [4], the result was inactive. The inhibition entry in test [3] is “inactive”.

Regarding `CCCC(CCC)(c1ccc(O)c(C)c1)c1cc(C)cs1`, on Estrogen receptor [1], the IC50 was found to be 1130 nM. Moreover, the concentration for a half-maximal effect (EC50) at Estrogen receptor [2] is over 30 µM. Also, the inhibition entry in test [3] was “inactive”.

On to `CCCC(CCC)(c1ccc(O)c(C)c1)c1ccc(C(=O)O)[nH]1`, for which the IC50 against Estrogen receptor [1] is over 10000 nM. Moreover, the result in test [4] was inactive. Moreover, the inhibition entry in test [3] is “inactive”.

Molecule `CCCC(CCC)(c1ccc(O)c(C)c1)c1ccc(C(=O)OCC)n1C` returned an IC50 at Estrogen receptor [1] of 1040 nM. Further, in test [4], the outcome was inactive. For the same molecule, in test [3], the inhibition was 41%.

At Estrogen receptor [1], `CCCC(CCC)(c1ccc(O)c(C)c1)c1c[nH]c2cc(OCc3ccccc3)ccc12` yielded a half-maximal inhibitory concentration (IC50) of 613 nM. The result in test [4] was inactive. For the same molecule, the inhibition in test [3] came out at 44%.

`CCCC(CCC)(c1ccc(O)c(C)c1)c1ccc(C(=O)OCC)[nH]1`: the IC50 against Estrogen receptor [5] came out at 450 nM; against Estrogen receptor [1], 195 nM. Besides, in test [4], the outcome was inactive.

At Estrogen receptor [1], `CCCC(CCC)(c1ccc(O)c(C)c1)c1c[nH]c2cccc(OCc3ccccc3)c12` had an IC50 of over 10000 nM. Besides, the outcome in test [4] was inactive. Also, in test [3], the inhibition result is “inactive”.

As for `CCCC(CCC)(c1ccc(O)c(C)c1)c1ccc(O)c(C)c1`, in test [4], the result was inactive.
